This note sets out measurements from patent US20260234180A1, “AMINO ACID DERIVATIVE, PREPARATION METHOD THEREFOR, AND PHARMACEUTICAL COMPOSITION FOR TREATING HEPATITIS, COMPRISING SAME” (priority 2021, published 2026).

For assay [1], the target named is T1, NTCP (Na+ taurocholate cotransporting peptide), HepG2-hNTCP-C4 cell line (Homo sapiens, UniProt Q14973).
T1 construct: expressed in transfected cells; host or cells: HepG2-hNTCP-C4 (HepG2 cells expressing human NTCP)
T1 sequence (Q14973 1-349): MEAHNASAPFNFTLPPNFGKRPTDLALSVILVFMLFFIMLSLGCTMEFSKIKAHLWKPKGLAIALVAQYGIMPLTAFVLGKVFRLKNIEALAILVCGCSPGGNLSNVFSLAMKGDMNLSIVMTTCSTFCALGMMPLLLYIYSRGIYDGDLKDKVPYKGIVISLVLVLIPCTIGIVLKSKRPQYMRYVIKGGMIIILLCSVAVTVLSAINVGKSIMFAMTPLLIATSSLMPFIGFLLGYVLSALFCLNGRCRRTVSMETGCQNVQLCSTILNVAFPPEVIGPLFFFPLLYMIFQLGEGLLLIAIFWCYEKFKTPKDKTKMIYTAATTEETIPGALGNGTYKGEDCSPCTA
Put plainly: Inhibition of binding between FITC-labelled PreS1 and NTCP expressing cell line, flow cytometry. The note with it: for effect of inhibiting the binding between PreS1 and NTCP expressing cell lines by treatment concentration: 0.2 μM, 2 μM, 10 μM, 50 μM; for effect of inhibiting the binding between PreS1 and NTCP expressing cell lines by treatment concentration / ability to inhibit the binding between PreS1 and NTCP expressing cell lines (bile acid series): 20 nM PreS1; for ability to inhibit the binding between PreS1 and NTCP expressing cell lines (bile acid series) / relative fluorescence intensity compared to Comparative Example 1 (LCA): compound 50 µM; for relative fluorescence intensity compared to Comparative Example 1 (LCA): 20 nM PreS1, 4° C., 2 hours, lower = more inhibited binding. The gist of the method: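 HepG2-hNTCP-C4 cells were pre-chilled at 4 °C for 30 min, then exposed to 20 nM Myr-PreS1-Lys(FITC) plus compound at 4 °C for 2 h, mostly at 50 μM, with some series at 0.2–50 μM or 2–50 μM. After washes and EDTA detachment, cell-bound green fluorescence was read by flow cytometry.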

Assay [2] deals with T2, NTCP, HepG2-hNTCP-C4 cell line (Homo sapiens, UniProt Q14973).
T2 construct: expressed in transfected cells; host or cells: HepG2-hNTCP-C4 (HepG2 cells expressing human NTCP)
T2 sequence (Q14973 1-349): T1 sequence (Q14973 1-349)
Put plainly: Inhibition of binding of fluorescent-labeled PreS1 peptide, fluorescence imaging. The note with it: 10 M and 50 PM; compared to the HBV-induced group solely treated with PreS1. The method, then:
Specifically, after placing a cover slip coated with fibronectin on a 24 well plate, a HepG2-hNTCP-C4 cell line, which is a cell line expressing NTCP, was seeded at a density of 1×10^5, followed by incubation overnight. Thereafter, 20 nM PreS1 and the compounds in Examples 1, 8, 9, and 44 were treated by diluting in culture media at 4° C. at a concentration of 50 μM, respectively. After 2 hours, the media were suctioned, followed by washing twice with 4° C. PBS, fixation with 4% paraformaldehyde for 20 minutes, and washing twice with 4° C. PBS. Thereafter, 300 nM 4′,6-diamidino-2-phenylindole (DAPI) was treated to stain the nucleus for 20 minutes, and then washing was followed once with distilled water (DW) and twice with 4° C. PBS. Subsequently, 10 μl of mounting media was loaded onto a slide glass, and a cover slip was placed thereon for observation under a fluorescence microscope.
Green fluorescence may be observed when PreS1 binds to a cell line expressing NTCP by FITC conjugated to PreS1.

For `CC[C@@H](C)[C@H](NC(=O)CC[C@@H](C)[C@H]1CC[C@H]2[C@@H]3CC[C@@H]4C[C@H](O)CC[C@]4(C)[C@H]3CC[C@]12C)C(=O)O` [Example 1, (2S,3R)-2-((R)-4-((3R,5R,8R,9S,10S,13R,14S,17R)-3-hydroxy-10,13-dimethyl-hexadecahydro-1H-cyclopenta[a]phenanthren-17-yl)pentanamido)-3-methylpentanoic acid], in assay [1], the “effect of inhibiting the binding between PreS1 and NTCP expressing cell lines by treatment concentration” value is given as “concentration dependent”; the “ability to inhibit the binding between PreS1 and NTCP expressing cell lines (bile acid series)” value is on record as “relatively excellent”; the “relative fluorescence intensity compared to Comparative Example 1 (LCA)” value is “low and lower”. Further, in assay [2], the “binding between PreS1 and NTCP (green fluorescence imaging)” value is “inhibited in a concentration dependent manner”.

With `CC[C@@H](C)[C@H](NC(=O)CC[C@@H](C)[C@H]1CC[C@H]2[C@@H]3[C@@H](O)C[C@@H]4C[C@H](O)CC[C@]4(C)[C@H]3CC[C@]12C)C(=O)O` [Example 2, (2S,3R)-2-((R)-4-((3R,5S,7S,8R,9S,10S,13R,14S,17R)-3,7-dihydroxy-10,13-dimethyl-hexadecahydro-1H-cyclopenta[a]phenanthren-17-yl)pentanamido)-3-methylpentanoic acid], the “ability to inhibit the binding between PreS1 and NTCP expressing cell lines (bile acid series)” value in assay [1] is listed as “relatively excellent”. Further, the “binding between PreS1 and NTCP (green fluorescence imaging)” value in assay [2] is given as “inhibited in a concentration dependent manner”.

As for `CC(C)[C@H](NC(=O)CC[C@@H](C)[C@H]1CC[C@H]2[C@@H]3[C@@H](O)C[C@@H]4C[C@H](O)CC[C@]4(C)[C@H]3CC[C@]12C)C(=O)O` [Example 3, (S)-2-((R)-4-((3R,5S,7S,8R,9S,10S,13R,14S,17R)-3,7-dihydroxy-10,13-dimethyl-hexadecahydro-1H-cyclopenta[a]phenanthren-17-yl)pentanamido)-3-methylbutanoic acid], the “ability to inhibit the binding between PreS1 and NTCP expressing cell lines (bile acid series)” value in assay [1] was “relatively excellent”. Further, the “binding between PreS1 and NTCP (green fluorescence imaging)” value in assay [2] was “inhibited in a concentration dependent manner”.

With `CC[C@@H](C)[C@H](NC(=O)CC[C@@H](C)[C@H]1CC[C@H]2[C@@H]3CC[C@@H]4C[C@H](O)CC[C@]4(C)[C@H]3C[C@H](O)[C@]12C)C(=O)O` [Example 10, (2S,3R)-2-((R)-4-((3R,5R,8R,9S,10S,12S,13R,14S,17R)-3,12-dihydroxy-10,13-dimethyl-hexadecahydro-1H-cyclopenta[a]phenanthren-17-yl)pentanamido)-3-methylpentanoic acid], the “ability to inhibit the binding between PreS1 and NTCP expressing cell lines (bile acid series)” value in assay [1] was “relatively excellent”.

For the compound `CC(C)[C@H](NC(=O)CC[C@@H](C)[C@H]1CC[C@H]2[C@@H]3CC[C@@H]4C[C@H](O)CC[C@]4(C)[C@H]3CC[C@]12C)C(=O)O` [Example 44, (S)-2-((R)-4-((3R,5R,8R,9S,10S,13R,14S,17R)-3-hydroxy-10,13-dimethyl-hexadecahydro-1H-cyclopenta[a]phenanthren-17-yl)pentanamido)-3-methylbutanoic acid], in assay [1], the “effect of inhibiting the binding between PreS1 and NTCP expressing cell lines by treatment concentration” value is on record as “concentration dependent”; the “ability to inhibit the binding between PreS1 and NTCP expressing cell lines (bile acid series)” value was “relatively excellent”; the “relative fluorescence intensity compared to Comparative Example 1 (LCA)” value was “low and lower”. In addition, in assay [2], the “binding between PreS1 and NTCP (green fluorescence imaging)” value is reported as “inhibited in a concentration dependent manner”.
